In patent US11771738B2 (Zoetis Services LLC, priority 2018, dated 2023):
Like-named read-outs stand apart in the source and are kept apart here.

Experiments:
Assay type in all cases: cell-based
[1] = system: third stage larvae of Haemonchus contortus; experiment: Haemonchus contortus, Larvae Stage 3 (HcL3) In Vitro Assay; settings: Haemonchus contortus, 96 h
[2] = system: microfilariae of Dirofilaria immitis; experiment: Dirofilaria immitis, Microfilaria (DiMf) In Vitro Assay; settings: Dirofilaria immitis, 72 h, read-out: DiMf MED, Minimum Effective Dose, D. immitis microfilariae motility, in vitro
D. immitis L4 larvae = experiment: Dirofilaria immitis, L4 Stage (DiL4) In Vitro Assay; settings: for minimal effective concentration: Dirofilaria immitis, 72 h, read-out: DiL4 MED, Minimum Effective Dose, D. immitis L4 larvae motility, in vitro; for DiMf/DiL4: larval stage selectivity, ratio of DiMf MED to DiL4 MED
[3] = read-out: HcL3 MED (symbol after Ex#), approximately 96 hours incubation, multiple-resistant field isolate
[4] = read-out: HcL3 MED, Minimum Effective Dose, H. contortus third stage larvae, approximately 96 hours
[5] = read-out: HcL3 MED, approximately 96 hours incubation, multiple-resistant field isolate
[6] = read-out: HcL3 MED, Haemonchus contortus third stage larvae in vitro, class mark appended to the Ex # in Table 3

Row | SMILES | minimal effective concentration [1, 3] [µM] | minimal effective concentration [1, 4] [µM] | minimal effective concentration [1, 5] [µM] | minimal effective concentration [2] [µM] | minimal effective concentration (D. immitis L4 larvae) [µM] | DiMf/DiL4 (D. immitis L4 larvae) | minimal effective concentration [1, 6] [µM]
1 | COc1ccc(Cc2ccc(C[C@H]3OC(=O)[C@H](CC(C)C)N(C)C(=O)[C@@H](C)OC(=O)[C@H](CC(C)C)N(C)C(=O)[C@@H](Cc4ccccc4)OC(=O)[C@H](CC(C)C)N(C)C(=O)[C@@H](C)OC(=O)[C@H](CC(C)C)N(C)C3=O)cc2)c(C)n1 [Example 4-118, (3S,6R,9S,12R,15S,18R,21S,24R)-6-benzyl-3,9,15,21-tetraisobutyl-18-(4-((6-methoxy-2-methylpyridin-3-yl)methyl)benzyl)-4,10,12,16,22,24-hexamethyl-1,7,13,19-tetraoxa-4,10,16,22-tetraazacyclotetracosan-2,5,8,11,14,17,20,23-octaone] | < 1 | 0.3 | ≤ 1 | 0.001 | 0.0001 | 10 | –
2 | CC(C)C[C@H]1C(=O)O[C@H](Cc2ccc(Cc3ccns3)cc2)C(=O)N(C)[C@@H](CC(C)C)C(=O)O[C@H](C)C(=O)N(C)[C@@H](CC(C)C)C(=O)O[C@H](Cc2ccc(Cc3ccns3)cc2)C(=O)N(C)[C@@H](CC(C)C)C(=O)O[C@H](C)C(=O)N1C [Example 3-156, (3S,6R,9S,12R,15S,18R,21S,24R)-3,9,15,21-tetraisobutyl-6,18-bis(4-(isothiazol-5-ylmethyl)benzyl)-4,10,12,16,22,24-hexamethyl-1,7,13,19-tetraoxa-4,10,16,22-tetraazacyclotetracosan-2,5,8,11,14,17,20,23-octaone] | – | 5.6 | – | 0.0005 | 0.0001 | 5 | –
3 | CC(C)C[C@H]1C(=O)O[C@H](Cc2ccc([C@H](O)c3sccc3Br)cc2)C(=O)N(C)[C@@H](CC(C)C)C(=O)O[C@H](C)C(=O)N(C)[C@@H](CC(C)C)C(=O)O[C@H](Cc2ccc([C@@H](O)c3sccc3Br)cc2)C(=O)N(C)[C@@H](CC(C)C)C(=O)O[C@H](C)C(=O)N1C [Example 3-132, (3S,6R,9S,12R,15S,18R,21S,24R)-6-(4-((R)-(3-bromothiophen-2-yl)(hydroxy)methyl)benzyl)-18-(4-((S)-(3-bromothiophen-2-yl)(hydroxy)methyl)benzyl)-3,9,15,21-tetraisobutyl-4,10,12,16,22,24-hexamethyl-1,7,13,19-tetraoxa-4,10,16,22-tetraazacyclotetracosan-2,5,8,11,14,17,20,23-octaone] | – | > 10 | – | 0.01 | 0.0004 | 25 | –
4 | COc1nccnc1Cc1ccc(C[C@H]2OC(=O)[C@H](CC(C)C)N(C)C(=O)[C@@H](C)OC(=O)[C@H](CC(C)C)N(C)C(=O)[C@@H](Cc3ccc(Cc4nccnc4OC)cc3)OC(=O)[C@H](CC(C)C)N(C)C(=O)[C@@H](C)OC(=O)[C@H](CC(C)C)N(C)C2=O)cc1 [Example 3-193, (3S,6R,9S,12R,15S,18R,21S,24R)-3,9,15,21-tetraisobutyl-6,18-bis(4-((3-methoxypyrazin-2-yl)methyl)benzyl)-4,10,12,16,22,24-hexamethyl-1,7,13,19-tetraoxa-4,10,16,22-tetraazacyclotetracosan-2,5,8,11,14,17,20,23-octaone] | – | 1 | ≤ 1 | 0.002 | 0.0004 | 5 | < 1
5 | Cc1[nH]ncc1Cc1ccc(C[C@H]2OC(=O)[C@H](CC(C)C)N(C)C(=O)[C@@H](C)OC(=O)[C@H](CC(C)C)N(C)C(=O)[C@@H](Cc3ccc(Cc4cn[nH]c4C)cc3)OC(=O)[C@H](CC(C)C)N(C)C(=O)[C@@H](C)OC(=O)[C@H](CC(C)C)N(C)C2=O)cc1 [Example 3-243, (3S,6R,9S,12R,15S,18R,21S,24R)-3,9,15,21-tetraisobutyl-4,6,10,16,18,22-hexamethyl-12,24-bis(4-((5-methyl-1H-pyrazol-4-yl)methyl)benzyl)-1,7,13,19-tetraoxa-4,10,16,22-tetraazacyclotetracosan-2,5,8,11,14,17,20,23-octaone] | – | 7.5 | – | 0.001 | 0.001 | 1 | –
6 | CC(C)C[C@H]1C(=O)O[C@H](Cc2ccc(Cc3cncnc3C(C)C)cc2)C(=O)N(C)[C@@H](CC(C)C)C(=O)O[C@H](C)C(=O)N(C)[C@@H](CC(C)C)C(=O)O[C@H](Cc2ccc(Cc3cncnc3C(C)C)cc2)C(=O)N(C)[C@@H](CC(C)C)C(=O)O[C@H](C)C(=O)N1C [Example 3-283, (3S,6R,9S,12R,15S,18R,21S,24R)-3,9,15,21-tetraisobutyl-6,18-bis(4-((4-isopropylpyrimidin-5-yl)methyl)benzyl)-4,10,12,16,22,24-hexamethyl-1,7,13,19-tetraoxa-4,10,16,22-tetraazacyclotetracosan-2,5,8,11,14,17,20,23-octaone] | – | 1 | ≤ 1 | 0.003 | 0.0005 | 6 | < 1
7 | Cc1ccsc1Cc1ccc(C[C@H]2OC(=O)[C@H](CC(C)C)N(C)C(=O)[C@@H](C)OC(=O)[C@H](CC(C)C)N(C)C(=O)[C@@H](Cc3ccccc3)OC(=O)[C@H](CC(C)C)N(C)C(=O)[C@@H](C)OC(=O)[C@H](CC(C)C)N(C)C2=O)cc1 [Example 4-34, (3S,6R,9S,12R,15S,18R,21S,24R)-6-benzyl-3,9,15,21-tetraisobutyl-4,10,12,16,22,24-hexamethyl-18-(4-((3-methylthiophen-2-yl)methyl)benzyl)-1,7,13,19-tetraoxa-4,10,16,22-tetraazacyclotetracosan-2,5,8,11,14,17,20,23-octaone] | < 1 | 0.5 | ≤ 1 | 0.01 | 0.0003 | 33.3 | –
8 | CC(C)C[C@H]1C(=O)O[C@H](Cc2ccc(Cc3cccnc3Cl)cc2)C(=O)N(C)[C@@H](CC(C)C)C(=O)O[C@H](C)C(=O)N(C)[C@@H](CC(C)C)C(=O)O[C@H](Cc2ccc(Cc3cccnc3Cl)cc2)C(=O)N(C)[C@@H](CC(C)C)C(=O)O[C@H](C)C(=O)N1C [Example 3-319, (3S,6R,9S,12R,15S,18R,21S,24R)-6,18-bis(4-((2-chloropyridin-3-yl)methyl)benzyl)-3,9,15,21-tetraisobutyl-4,10,12,16,22,24-hexamethyl-1,7,13,19-tetraoxa-4,10,16,22-tetraazacyclotetracosan-2,5,8,11,14,17,20,23-octaone] | – | 0.55 | ≤ 1 | 0.00173 | 5.5e-05 | 31.5 | < 1
9 | CC(C)C[C@H]1C(=O)O[C@H](Cc2ccc(Cc3cccnc3C3CC3)cc2)C(=O)N(C)[C@@H](CC(C)C)C(=O)O[C@H](C)C(=O)N(C)[C@@H](CC(C)C)C(=O)O[C@H](Cc2ccc(Cc3cccnc3C3CC3)cc2)C(=O)N(C)[C@@H](CC(C)C)C(=O)O[C@H](C)C(=O)N1C [Example 3-296, (3S,6R,9S,12R,15S,18R,21S,24R)-6,18-bis(4-((2-cyclopropylpyridin-3-yl)methyl)benzyl)-3,9,15,21-tetraisobutyl-4,10,12,16,22,24-hexamethyl-1,7,13,19-tetraoxa-4,10,16,22-tetraazacyclotetracosan-2,5,8,11,14,17,20,23-octaone] | – | 1.8 | – | 0.03 | 0.0005 | 60 | 1 to 3.3
10 | COc1ccsc1Cc1ccc(C[C@H]2OC(=O)[C@H](CC(C)C)N(C)C(=O)[C@@H](C)OC(=O)[C@H](CC(C)C)N(C)C(=O)[C@@H](Cc3ccc(Cc4sccc4OC)cc3)OC(=O)[C@H](CC(C)C)N(C)C(=O)[C@@H](C)OC(=O)[C@H](CC(C)C)N(C)C2=O)cc1 [Example 3-110, (3S,6R,9S,12R,15S,18R,21S,24R)-3,9,15,21-tetraisobutyl-6,18-bis(4-((3-methoxythiophen-2-yl)methyl)benzyl)-4,10,12,16,22,24-hexamethyl-1,7,13,19-tetraoxa-4,10,16,22-tetraazacyclotetracosan-2,5,8,11,14,17,20,23-octaone] | – | > 100 | – | 0.03 | 0.0001 | 300 | –
11 | COc1ccnc(Cc2ccc(C[C@H]3OC(=O)[C@H](CC(C)C)N(C)C(=O)[C@@H](C)OC(=O)[C@H](CC(C)C)N(C)C(=O)[C@@H](Cc4ccc(Cc5nccc(OC)n5)cc4)OC(=O)[C@H](CC(C)C)N(C)C(=O)[C@@H](C)OC(=O)[C@H](CC(C)C)N(C)C3=O)cc2)n1 [Example 3-217, (3S,6R,9S,12R,15S,18R,21S,24R)-3,9,15,21-tetraisobutyl-6,18-bis(4-((4-methoxypyrimidin-2-yl)methyl)benzyl)-4,10,12,16,22,24-hexamethyl-1,7,13,19-tetraoxa-4,10,16,22-tetraazacyclotetracosan-2,5,8,11,14,17,20,23-octaone] | – | 3.3 | – | 0.003 | < 0.0007 | >4.3 | 1 to 3.3
